Results as given in paper PMC3506555, “[^11C]phenytoin revisited: synthesis by [^11C]CO carbonylation and first evaluation as a P-gp tracer in rats” (EJNMMI Research, 2012).
“Also recorded” adds a separate entry of the source. Like-named read-outs stand apart in the source and are kept apart here.

System: P-gp
Assay: PET Logan graphical analysis of brain VT, baseline and after tariquidar P-gp block
Assay type: in vivo, Sprague–Dawley rats
Details: for Kp: Sprague-Dawley; for Kp / Increase in cerebral distribution volume (VT) after tariquidar compared with baseline: rat; for P-gp substrate character: conclusion from tariquidar predosing studies in rats; for Increase in cerebral distribution volume (VT) after tariquidar compared with baseline: tariquidar 15 mg·kg^−1 predosing
Text: Following cannulation of the femoral vein, animals were positioned in pairs in a double LSO/LYSO layer high-resolution research tomograph (CTI/Siemens, Knoxville, TN, USA). First, for attenuation and scatter correction purposes, a transmission scan was acquired using a 740-MBq two-dimensional fan-collimated ^137Cs (662 keV) moving point source. Next, a dynamic emission scan was acquired immediately following administration of 17.1 ± 2.1 MBq (mean ± SD) ^11C]phenytoin to each rat. Two animals had one single ^11C]phenytoin scan; two animals had two consecutive scans, and two had three consecutive scans. Finally, all animals underwent an ^18F]FDG scan before being euthanized. Tariquidar, 15 mg·kg^−1, was used to completely block P-gp, while probenecid, 150 mg·kg^−1, was used to inhibit multi-resistant protein (MRP) efflux proteins. Tariquidar and probenecid were administered i.v. 20 min prior to the scan start as a 10-min infusion. All animals, except one, were scanned without any treatment prior to the first ^11C]phenytoin scan. Of the animals that had two scans, one underwent two post-tariquidar scans (animal 4, Table 1). […] Animals that underwent three consecutive scans had one baseline, one post probenecid and one post-tariquidar scan. During each scan, emission data were acquired for 60 min in list mode and rebinned into the following frame sequence: 7 × 10, 1 × 20, 3 × 30, 2 × 60, 2 × 150, 2 × 300 and 4 × 600 s. Following corrections for decay, dead time, attenuation, random and scatter, scans were reconstructed using a 3D ordinary Poisson ordered subsets expectation maximization algorithm. […] PET image data were analyzed using the freely available software package Amide 0.9 [31]. A magnetic resonance (MR)-based rat brain atlas was used to define five regions of interest (ROIs): the hippocampus, occipital cortex, parietal cortex, caudate putamen and cerebellum. The MR atlas including all ROIs was aligned visually with the summed ^18F]FDG image for each rat. ROIs were then projected onto all frames of all ^11C]phenytoin scans, resulting in ^11C]phenytoin time-activity curves for each scan and rat.
During each [^11C]phenytoin scan, arterial blood samples of 0.1 mL were taken at 20 and 40 s and at 1, 2, 5, 15, 30 and 60 min after [^11C]phenytoin injection. For animals that underwent three scans, the amount of blood withdrawn was reduced by replacing the two samples at 15 and 30 min with a single 20-min sample. Plasma was obtained by centrifugation at 4,000 rpm for 5 min at 4°C, and activity in both plasma and whole blood was measured in an automated 1282 Compugamma CS Universal Gamma Counter (LKB Wallac, Turku, Finland), cross-calibrated against the PET scanner. Standardized uptake values (SUVs) as a function of time were derived by normalizing measured radioactivity concentrations against injected dose and body weight.
To obtain a model independent estimate of the brain-to-plasma partition coefficient, often referred to as volume of distribution, Logan graphical analysis was used. Before Logan analysis, both brain and plasma concentrations were corrected for labeled metabolites. As metabolite fractions were not measured at each plasma or mid-frame time point, linear regression was used to estimate the fraction of intact ^11C]phenytoin at each time point.

- Kp (caudate putamen (relative to plasma), intravenous, baseline, n = 5, metabolite-corrected plasma input and brain data, read-out: VT (Logan), caudate putamen): 0.98 ± 0.08
- Kp (caudate putamen (relative to plasma), iv, with tariquidar 15 mg/kg i.v., after tariquidar 15 mg·kg^−1 i.v., n = 5, metabolite-corrected, read-out: VT (Logan), caudate putamen): 1.48 ± 0.12
- Kp (cerebellum (relative to plasma), intravenous, baseline, n = 5, metabolite-corrected plasma input and brain data, read-out: VT (Logan), cerebellum): 1.02 ± 0.08
- Kp (cerebellum (relative to plasma), iv, with tariquidar 15 mg/kg i.v., after tariquidar 15 mg·kg^−1 i.v., n = 5, metabolite-corrected, read-out: VT (Logan), cerebellum): 1.48 ± 0.09
- Kp (hippocampus (relative to plasma), intravenous, baseline, n = 5, metabolite-corrected plasma input and brain data, read-out: VT (Logan), hippocampus): 0.96 ± 0.09
- Kp (hippocampus (relative to plasma), iv, with tariquidar 15 mg/kg i.v., after tariquidar 15 mg·kg^−1 i.v., n = 5, metabolite-corrected, read-out: VT (Logan), hippocampus): 1.43 ± 0.07
- Kp (occipital cortex (relative to plasma), intravenous, baseline, n = 5, metabolite-corrected plasma input and brain data, read-out: VT (Logan), occipital cortex): 0.91 ± 0.06
- Kp (occipital cortex (relative to plasma), iv, with tariquidar 15 mg/kg i.v., after tariquidar 15 mg·kg^−1 i.v., n = 5, metabolite-corrected, read-out: VT (Logan), occipital cortex): 1.3 ± 0.11
- Kp (parietal cortex (relative to plasma), intravenous, baseline, n = 5, metabolite-corrected plasma input and brain data, read-out: VT (Logan), parietal cortex): 0.91 ± 0.08
- Kp (parietal cortex (relative to plasma), iv, with tariquidar 15 mg/kg i.v., after tariquidar 15 mg·kg^−1 i.v., n = 5, metabolite-corrected, read-out: VT (Logan), parietal cortex): 1.35 ± 0.11
- Increase in cerebral distribution volume (VT) after tariquidar compared with baseline: 45%
- Increase in cerebral distribution volume (VT) after tariquidar compared with baseline (listed as 11C]phenytoin): about 45%
Structure (SMILES): O=C1N[11C](=O)NC1(c1ccccc1)c1ccccc1 [[^11C]phenytoin]
- P-gp substrate character: rather weak P-gp substrate; also recorded: moderate P-gp substrate
- P-gp substrate character (listed as 11C]phenytoin): rather moderate affinity for P-gp
